Experimental data from patent US20220396840A1, “IRON-SCORE AND IN VITRO METHOD FOR IDENTIFYING MANTLE CELL LYMPHOMA (MCL) SUBJECTS AND THERAPEUTIC USES AND METHODS” (priority 2019, published 2022).
Read-outs that look alike come from different tables or passages of the source.

What was measured:
JEKO-1 = test: Cell viability assay (CellTiter-Glo, ATP quantification); type: cell-based; conditions: Homo sapiens
Procedure: (§1) The 6 MCL cell lines (GRANTA-519, JEKO-1, MINO, MAVER-1, JVM-2 and REC-1) were purchased from the DSMZ (Leibniz-Institut DSMZ—Deutsche Sammlung von Mikroorganismen und Zellkulturen GmbH, Germany). They were maintained according to the supplier's recommendations. Cultures were maintained at 37° C. in a humidified atmosphere with 5% CO2.
(§2) MCL cell lines were cultured for 4 days in 96-well flat-bottom microtiter plates in RPMI 1640 medium or DMEM medium, 10% or 20% FCS (control medium) in the presence of various compounds. The number of viable cells in culture was determined using the CellTiter-Glo Luminescent Cell Viability Assay from Promega, Madison, Wis., USA using a Centro LB 960 luminometer (Berthold Technologies, Bad Wildbad, Germany).
(§3) This test is based on quantitation of the intracellular ATP present, which signals the presence of metabolically active cells. Data are expressed as the mean percentage of six replicates, normalized to the untreated control.
(§4) We investigated the therapeutic interest of iron metabolism inhibitors AM5 (Ironomycin) and AM23. The panel of 6 MCL cell lines were incubated with increasing concentrations of Ironomycin (FIG. 2 A), AM23 (FIG. 2 B) or vehicle for 96H (A). Inhibitory concentration 50% (IC50) was calculated with concentration-response curve after treatment with Ironomycin. Cell viability was examined using quantification of ATP assay. Data are expressed as mean percentage+/−SEM of at least three independent experiments performed in sixplicate. Tables 6 and 7 presenting the inhibitory concentration 50% (IC50) of Ironomycin and AM23 for the 6 MCL cell-lines.

MINO = test: as above; type: cell-based; conditions: Homo sapiens
Procedure: as §1, §2, §3, §4

JVM-2 = test: as above; type: cell-based; conditions: Homo sapiens
Procedure: as §1, §2, §3, §4

MAVER-1 = test: as above; type: cell-based; conditions: Homo sapiens
Procedure: as §1, §2, §3, §4

GRANTA-519 = test: as above; type: cell-based; conditions: Homo sapiens
Procedure: as §1, §2, §3, §4

REC-1 = test: as above; type: cell-based; conditions: Homo sapiens
Procedure: as §1, §2, §3, §4

primary MCL cells = test: Primary MCL cells of patients cultured with CD40L, flow cytometry; type: cell-based, human
Procedure: (§5) In a first experiment, primary MCL cells were treated with Ironomycin and incubated during 96H with CD40L. The toxicity on MCL cells (A) and non-MCL cells (B) was analyzed by flow cytometry and expressed in % of control. N=5, Median+/−IQR, t-test of pairs. * P<0.05, ** P<0.01, *** P<0.001, **** P<0.0001.
These first results were further completed by additional experiments: primary MCL cell were treated with Ironomycin (C) or AM-23 (D) and incubated during 96H with recombinant CD40L.
Results represent the median±IQR of each population cells of nine (C) and six patients (D), respectively. Statistical significance was tested using t-test of pairs: * P<0.05, ** P<0.01 *** P<0.001, **** P<0.0001 and NS: non-significant.
(§6) Cells are obtained from lymph nodes or blood of 9 patients with MCL.
(§7) In a first experiment, primary MCL cells were treated with Ironomycin and incubated during 96H with CD40L. The toxicity on MCL cells (FIG. 7 A) and non-MCL cells (FIG. 7 B) was analyzed by flow cytometry and expressed in % of control.
The toxicity on MCL cells was analyzed by flow cytometry and expressed in % of control.

[1] = system: Jeko-1 and JVM-2 MCL cell lines; conditions: deferasirox 80 μM, Ironomycin 50 nM and 500 nM, 72H
Procedure: Jeko-1 and JVM2 cell line was pre-incubated with or without 80 μM of deferasirox or 50 nM and 500 nM of Ironomycin, respectively, for 4 hours followed by 72H incubation in presence or absence of FeCl3 (100 μM). Apoptosis was assessed using Annexin V-PE staining by flow cytometry.
AnnexinV-PE staining for apoptosis analysis was performed using the “PE Annexin V Apoptosis Detection Kit I” (559763, Becton Dickinson).
The inventors further investigated the effect of Iron supplementation on the cell death induced by these treatments. Iron chelator (Deferasirox) concentrations were chosen according the maximal plasmatic concentration achievable in the patient (Nisbet-Brown et al., 2003).

[2] = system: Cyclin D1, phospho-Rb, CDK4 in Jeko-1 and JVM2 cells; test: Western blot of cyclinD1, phospho-Rb, Rb and CDK4; type: cell-based, human; conditions: 100 nM Jeko-1, 500 nM JVM2, 24H
Procedure: Jeko-1 and JVM2 cells were treated with Ironomycin (100 nM and 500 nM, respectively) during 24H. Protein levels of cyclinD1, phospho-Rb, Rb and CDK4 were analyzed by western blot and normalized by the β-actin expression level. This Cyclin D1 downregulation is associated with a downregulation of Rb phosphorylation and CDK4 protein levels.
(§8) The total cell lysates were obtained with RIPA 1× lysis buffer (#9806, Cell Signaling®) according with the supplier recommendations.
(§9) Protein lysates migrate on 10% polyacrylamide gel (NP-0301, Novex, Life Technologies®), in MOPS 1× running buffer (NP0001, Novex, Life Technologies®) or MES 1× running buffer NP-0002, Novex, Life Technologies®) and proteins are transferred to nitrocellulose membrane (1B301001, I-Blot Transfert Starck, NuPAGE, Life Technologies®). The primary antibodies mouse-anti-phospho-Histone H2A.X (Ser139) clone JBW301 (1/1000, Merck Millipore), rabbit anti-cyclinD1 (#2926, 1/1000, Cell Signaling®), rabbit anti-phospho (S795)-Rb (#9301, 1/1000, Cell Signaling®), mouse anti-Rb (#9309, 1/1000, Cell Signaling®), mouse anti-CDK4 (#2906, 1/1000, Cell Signaling®) were incubated in TBS-Tween 20 0.1% (Tris-Buffered Saline, pH 7.4) with 5% non-fat milk or Bovine serum albumin (Sigma-Aldrich, A7906). Protein levels are objectified by labeling with an anti-β-actin mouse monoclonal antibody (Sigma, A5441, St Louis, Mo., USA 1/1000). Primary antibodies are visualized with secondary anti-rabbit antibodies (Sigma®, A9169) or anti-mouse antibodies (Jackson, 115-036-068) coupled to peroxidase allows the development by chemiluminescence by Western Lightning ECL (NEL121001EA, Perkin Elmer®). Quantification of protein levels was performed with Image J® software (National Institutes of Health, Bethesda, Md., USA).
Mantle cell lymphoma (MCL) is now recognized as an aggressive B-cell lymphoma with various growth patterns (mantle zone, nodular, or diffuse) and a broad range of cytologic features. […]

Phospho-H2A.X (S139) = test: Western blot of Phospho-H2A.X (S139), DNA damage response; type: cell-based, human; conditions: 100 nM for Jeko-1 and 500 nM for JVM-2, 24H
Procedure: Cells were treated with Ironomycin (100 nM for Jeko-1 and 500 nM for JVM-2) during 24H. Protein levels of Phospho-H2A.X (S139) were analyzed by western blot and normalized by β-actin protein level.
as §8
as §9, with “Protein levels are objectified by labeling with an anti-β-actin mouse monoclonal antibody (Sigma, A5441, St Louis, Mo., USA 1/1000). Primary antibodies are visualized with secondary anti-rabbit antibodies (Sigma®, A9169) or anti-mouse antibodies (Jackson, 115-036-068) coupled to peroxidase allows the development by chemiluminescence by Western Lightning ECL (NEL121001EA, Perkin Elmer®).” left out
Protein levels of Phospho-H2A.X (S139) were analyzed by western blot and normalized by β-actin protein level (FIG. 5).

[3] = system: Jeko-1 and JVM-2 cell lines; test: Cell cycle analysis by flow cytometry (BrdU/DAPI); type: cell-based, human; conditions: IC50 Ironomycin for 24 hours
Procedure: Cells were incubated with vehicle or with IC50 Ironomycin for 24 hours.
The cell cycle progression was studied by flow cytometry using the Apoptosis, DNA Damage, and Cell Proliferation Kit (562253, Becton Dickinson). Briefly, cells were labeled with bromodeoxyuridine (BrdU), an analog of the DNA precursor thymidine that can be incorporated into newly synthesized DNA and detected with an antibody against BrdU to measure cell proliferation. After this labeling, the cells were fixed, permeabilized and treated with DNase to expose the BrdU epitopes. Following this treatment, cells were simultaneously stained with fluorochrome-labeled anti-BrdU, anti-cleaved Poly ADP-ribose polymerase 1 (PARP), anti-H2AX phosphorylated at serine 139. They were also stained with DAPI to determine DNA content. Finally, cells were resuspended in staining buffer and analyzed by flow cytometry (Fortessa, Becton Dickinson).
Cells were incubated with vehicle or with IC50 Ironomycin for 24 hours. […] (FIG. 4)

Jeko-1 and JVM-2 cells = test: Drug combination concentration matrix, cell viability by ATP quantification, Bliss synergy matrix; type: cell-based, human; conditions: 96 h
Procedure: Jeko-1 and JVM-2 cells were treated with increasing concentrations of ironomycin combined with ibrutinib (BTK inhibitor) for 96 h and cell viability was tested by ATP quantification to obtain the viability matrix. The synergy matrix was calculated as described in Material and Methods.
Jeko-1 and JVM-2 cells were treated with increasing concentrations of ironomycin combined with Venetoclax (BCL2 inhibitor) for 96 h and cell viability was tested by ATP quantification to obtain the viability matrix. The synergy matrix was calculated as described in Material and Methods.
Jeko-1 and JVM-2 cells were treated with increasing concentrations of ironomycin combined with doxorubicin for 96 h and cell viability was tested by ATP quantification to obtain the viability matrix. The synergy matrix was calculated as described in Material and Methods.
The interaction between the drugs tested in vitro was investigated with a concentration matrix test, in which increasing concentration of each single drug were assessed with all possible combinations of the other drugs. For each combination, the percentage of expected growing cells in the case of effect independence was calculated according to the Bliss equation (Combes et al., 2019): […]
where fuC is the expected fraction of cells unaffected by the drug combination in the case of effect independence, and fuA and fuB are the fractions of cells unaffected by treatment A and B, respectively. The difference between the fraction of living cells in the cytotoxicity test and the fuC value was considered as an estimation of the interaction effect, with positive values indicating synergism and negative values antagonism.
Synergy matrix was built with the R package “SynergyFinder”.

[4] = system: non-MCL cells (normal cells from the microenvironment); type: cell-based, human
Procedure: as §5, §6, §7

[5] = system: hematopoietic progenitors
[6] = Homo sapiens, 96 h, read-out: reduction of the median number of viable primary MCL cells

With `CC[C@@H](C(=O)[C@@H](C)[C@@H](O)[C@H](C)[C@@H]1O[C@@H]([C@@H](CC)C(=O)O)CC[C@@H]1C)[C@H]1O[C@]2(C=C[C@@H](NC3CC3)[C@]3(CC[C@@](C)([C@H]4CC[C@](O)(CC)[C@H](C)O4)O3)O2)[C@H](C)C[C@@H]1C` [AM-23] the IC50 (JEKO-1; JeKo-1, 96 h) was 8 nM, the IC50 (MINO; 96 h) was 43 nM and the IC50 (JVM-2; JVM-2, 96 h) was 58 nM. The IC50 (MAVER-1; Maver1, 96 h) was 17.3 nM, the IC50 (GRANTA-519; Granta-519, 96 h) was 845 nM and the IC50 (REC-1; Rec1, 96 h) was 6.8 nM. For the same compound, the cytotoxicity at 0.01 µM (primary MCL cells; [6]) was 34%, the cytotoxicity at 0.02 µM (primary MCL cells; [6]) was 58% and the cytotoxicity at 0.05 µM (primary MCL cells; [6]) was 60%. It also gave a cytotoxicity at 0.1 µM (primary MCL cells; [6]) of 64%.

Work on `C#CCN[C@@H]1C=C[C@]2(O[C@H]([C@@H](CC)C(=O)[C@@H](C)[C@@H](O)[C@H](C)[C@@H]3O[C@@H]([C@@H](CC)C(=O)O)CC[C@@H]3C)[C@@H](C)C[C@H]2C)O[C@@]12CC[C@@](C)([C@H]1CC[C@](O)(CC)[C@H](C)O1)O2` [Ironomycin] yielded an IC50 (JEKO-1; JEKO-1, 96H incubation, cell viability by ATP, read-out: IC50) of 12.8 nM, an IC50 (MINO; 96H incubation, cell viability by ATP, read-out: IC50) of 54.4 nM and an IC50 (JVM-2; JVM-2, 96H incubation, cell viability by ATP, read-out: IC50) of 139 nM. The IC50 (MAVER-1; Maver1, MAVER-1, 96H incubation, cell viability by ATP, read-out: IC50) was 50.5 nM, the IC50 (GRANTA-519; GRANTA-519, 96H incubation, cell viability by ATP, read-out: IC50) was 802 nM and the IC50 (REC-1; Rec1, REC-1, 96H incubation, cell viability by ATP, read-out: IC50) was 53.4 nM. The “apoptosis monitored by Annexin V staining” value [1] was “induces apoptosis”, the CDK4 protein levels [2] was “downregulation” and the “Cyclin D1 protein level” value [2] was “significant downregulation”. For the same compound, the RB phosphorylation [2] was “downregulation”, the “DNA damage response (Serine 139 phosphorylation of H2A.X)” value (Phospho-H2A.X (S139)) was “induces DNA damage response” and the “median number of viable primary MCL cells (first experiment)” value (primary MCL cells; 20 nM, 50 nM and 100 nM, 96H with CD40L, N=5) was “significantly reduced”. It also gave a cytotoxicity at 0.02 µM (primary MCL cells; [6]) of 30%, a cytotoxicity at 0.05 µM (primary MCL cells; [6]) of 46% and a cytotoxicity at 0.1 µM (primary MCL cells; [6]) of 53%. For the same compound, the cell cycle [3] was “induces MCL cell cycle defect”, the “interaction effect in combination with Doxorubicin” value (Jeko-1 and JVM-2 cells) was “synergistic effect” and the “interaction effect in combination with Ibrutinib (BTK inhibitor)” value (Jeko-1 and JVM-2 cells) was “synergistic effect”. The “interaction effect in combination with Venetoclax (Bcl2 inhibitor)” value (Jeko-1 and JVM-2 cells) was “synergistic effect”, the “toxicity for non-tumor cells from the microenvironment” value [4] was “without major toxicity” and the “toxicity in MCL cells compared to normal cells from the microenvironment” value [4] was “higher toxicity in MCL cells compared to normal cells”. The “toxicity on hematopoietic progenitors” value [5] was “low toxicity”.
